Data reported in patent US10899793B2, “Melanocortin ligands and methods of use thereof” (priority 2016, dated 2021).
Square brackets hold non-standard residues; d marks the D form. Peptide text beside a SMILES is read from it. Bip = N[C@@H](Cc1ccc(-c2ccccc2)cc1)C(=O)O; dPhe(4-I) = N[C@H](Cc1ccc(I)cc1)C(=O)O; 2Nal = N[C@@H](Cc1ccc2ccccc2c1)C(=O)O; d2Nal = N[C@H](Cc1ccc2ccccc2c1)C(=O)O; Bta = N[C@@H](Cc1csc2ccccc12)C(=O)O; Tic = O=C(O)[C@@H]1Cc2ccccc2CN1

Tests used:
mMC3R [1] = target: T1, mMC3R (Mus musculus, UniProt P33033); conditions: Table 1; Schild analysis, pA2 = -Log(Ki); Full Agonist = full dose-response, No Activity = no shift in EC50
T1 sequence (P33033 whole entry): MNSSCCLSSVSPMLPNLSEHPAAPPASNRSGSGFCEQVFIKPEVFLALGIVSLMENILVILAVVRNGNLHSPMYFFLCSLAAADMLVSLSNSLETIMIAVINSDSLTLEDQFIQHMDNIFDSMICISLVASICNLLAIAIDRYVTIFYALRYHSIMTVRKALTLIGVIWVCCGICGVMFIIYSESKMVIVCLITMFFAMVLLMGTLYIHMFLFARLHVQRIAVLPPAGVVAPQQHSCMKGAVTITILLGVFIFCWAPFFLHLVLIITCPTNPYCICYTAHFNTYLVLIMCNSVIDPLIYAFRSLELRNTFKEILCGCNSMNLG

mMC3R [2] = target: T1, mMC3R; test: AlphaScreen cAMP agonist assay at mMC3R; conditions: Table 1; @ 100 μM
mMC4R = mMC4R (Mus musculus, UniProt P56450); conditions: for mMC4R Antagonist pA2 ± SEM: Table 1, Schild analysis, pA2 = -Log(Ki)
Chain of mMC4R (P56450 whole entry): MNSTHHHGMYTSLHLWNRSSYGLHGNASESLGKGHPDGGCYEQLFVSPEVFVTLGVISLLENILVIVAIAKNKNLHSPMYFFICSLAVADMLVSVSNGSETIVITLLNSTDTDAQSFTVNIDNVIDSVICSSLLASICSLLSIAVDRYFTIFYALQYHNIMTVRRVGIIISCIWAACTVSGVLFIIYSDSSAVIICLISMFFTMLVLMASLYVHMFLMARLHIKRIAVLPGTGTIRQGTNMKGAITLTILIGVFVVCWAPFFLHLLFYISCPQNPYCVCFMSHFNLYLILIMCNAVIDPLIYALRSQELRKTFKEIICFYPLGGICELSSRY

mMC5R = mMC5R (Mus musculus, UniProt P41149); test: AlphaScreen cAMP agonist assay at mMC5R; conditions: read-out: percent of the NDP-MSH maximal positive control, Table 2
Chain of mMC5R (P41149 whole entry): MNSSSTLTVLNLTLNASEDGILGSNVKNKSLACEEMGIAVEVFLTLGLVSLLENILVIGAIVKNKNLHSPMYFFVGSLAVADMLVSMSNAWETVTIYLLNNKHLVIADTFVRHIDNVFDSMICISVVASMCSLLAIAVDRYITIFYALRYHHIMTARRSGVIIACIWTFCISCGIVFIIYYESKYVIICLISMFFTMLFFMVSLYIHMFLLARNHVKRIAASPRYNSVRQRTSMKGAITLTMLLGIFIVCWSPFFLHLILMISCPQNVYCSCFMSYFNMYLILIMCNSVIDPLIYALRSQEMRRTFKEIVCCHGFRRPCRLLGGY

| Compound | mMC3R Antagonist pA2 ± SEM (mMC3R [1]) | mMC3R Agonist, percent of the NDP-MSH maximal positive control (mMC3R [2]) [% @ 100 μM] | also measured |
| --- | --- | --- | --- |
| CC(=O)N[C@@H](Cc1csc2ccccc12)C(=O)N[C@@H](CCCNC(=N)N)C(=O)N[C@H](Cc1ccc(I)cc1)C(=O)N[C@@H](Cc1csc2ccccc12)C(N)=O [SKY4-48-13, Ac-3Bal-Arg-(pI)DPhe-3Bal-NH2] (Ac-[Bta]R[dPhe(4-I)][Bta]-NH2) | Full Agonist | – | – |
| CC(=O)N[C@@H](CCCNC(=N)N)C(=O)N[C@@H](CCCNC(=N)N)C(=O)N[C@H](Cc1ccc(I)cc1)C(=O)N[C@@H](Cc1ccc2ccccc2c1)C(N)=O [SKY4-48-34, Ac-Arg-Arg-(pI)DPhe-Nal(2′)-NH2] | – | 51 | – |
| CC(=O)N[C@H](Cc1ccc2ccccc2c1)C(=O)N[C@@H](CCCNC(=N)N)C(=O)N[C@H](Cc1ccc(I)cc1)C(=O)N[C@@H](Cc1ccccc1)C(N)=O [SKY4-48-33, Ac-DNal(2′)-Arg-(pI)DPhe-Phe-NH2] (Ac-[d2Nal]R[dPhe(4-I)]F-NH2) | – | – | antagonist pA2 at the mMC4R (mMC4R): 6.9 |
| CC(=O)N[C@@H](Cc1ccc2ccccc2c1)C(=O)N[C@@H](CCCNC(=N)N)C(=O)N[C@H](Cc1ccc(I)cc1)C(=O)N[C@@H](Cc1ccc(-c2ccccc2)cc1)C(N)=O [SKY4-48-8, Ac-Nal(2′)-Arg-(pI)DPhe-Bip-NH2] (Ac-[2Nal]R[dPhe(4-I)][Bip]-NH2) | Full Agonist | – | mMC4R Antagonist pA2 ± SEM (mMC4R): Full Agonist |
| CC(=O)N[C@@H](Cc1ccc(-c2ccccc2)cc1)C(=O)N[C@@H](CCCNC(=N)N)C(=O)N[C@H](Cc1ccc(I)cc1)C(=O)N1Cc2ccccc2C[C@H]1C(N)=O [SKY4-48-20, Ac-Bip-Arg-(pI)DPhe-Tic-NH2] (Ac-[Bip]R[dPhe(4-I)][Tic]-NH2) | Full Agonist | – | – |

Now from value to compound, other results behind:

| mMC3R Antagonist pA2 ± SEM (mMC3R [1]) | mMC3R Agonist, percent of the NDP-MSH maximal positive control (mMC3R [2]) [% @ 100 μM] | Compound | also measured |
| --- | --- | --- | --- |
| Full Agonist | – | CC(=O)N[C@@H](Cc1c[nH]cn1)C(=O)N[C@@H](CCCNC(=N)N)C(=O)N[C@H](Cc1ccc(I)cc1)C(=O)N[C@@H](Cc1ccccc1)C(N)=O [SKY5-146-3, Ac-His-Arg-(pI)DPhe-Phe-NH2] (Ac-HR[dPhe(4-I)]F-NH2) | – |
| Full Agonist | – | CC(=O)N[C@@H](Cc1ccc2ccccc2c1)C(=O)N[C@@H](CCCNC(=N)N)C(=O)N[C@H](Cc1ccc(I)cc1)C(=O)N[C@@H](Cc1csc2ccccc12)C(N)=O [SKY4-48-16, Ac-Nal(2′)-Arg-(pI)DPhe-3Bal-NH2] (Ac-[2Nal]R[dPhe(4-I)][Bta]-NH2) | – |
| Full Agonist | – | CC(=O)N[C@@H](Cc1ccc(-c2ccccc2)cc1)C(=O)N[C@@H](CCCNC(=N)N)C(=O)N[C@H](Cc1ccc(I)cc1)C(=O)N[C@@H](Cc1csc2ccccc12)C(N)=O [SKY4-48-12, Ac-Bip-Arg-(pI)DPhe-3Bal-NH2] (Ac-[Bip]R[dPhe(4-I)][Bta]-NH2) | mMC4R Antagonist pA2 ± SEM (mMC4R): No Activity |
| No Activity | 44 | CC(=O)N[C@@H](Cc1ccccc1)C(=O)N[C@@H](CCCNC(=N)N)C(=O)N[C@H](Cc1ccc(I)cc1)C(=O)N[C@@H](Cc1ccc2ccccc2c1)C(N)=O [SKY4-48-39, Ac-Phe-Arg-(pI)DPhe-Nal(2′)-NH2] (Ac-FR[dPhe(4-I)][2Nal]-NH2) | activation at 100 µM (mMC5R): 61% |
| No Activity | 22 | CC(=O)N[C@@H](Cc1ccccc1)C(=O)N[C@@H](CCCNC(=N)N)C(=O)N[C@H](Cc1ccc(I)cc1)C(=O)N[C@H](Cc1ccc2ccccc2c1)C(N)=O [SKY4-48-47, Ac-Phe-Arg-(pI)DPhe-DNal(2′)-NH2] (Ac-FR[dPhe(4-I)][d2Nal]-NH2) | activation at 100 µM (mMC5R): 39% |
| No Activity | 77 | CC(=O)N[C@@H](Cc1ccc(-c2ccccc2)cc1)C(=O)N[C@@H](CCCNC(=N)N)C(=O)N[C@H](Cc1ccc(I)cc1)C(=O)N[C@@H](Cc1ccccc1)C(N)=O [SKY4-48-28, Ac-Bip-Arg-(pI)DPhe-Phe-NH2] (Ac-[Bip]R[dPhe(4-I)]F-NH2) | activation at 100 µM (mMC5R): 69% |
